# Biological target: Beta-secretase 1 (Homo sapiens, UniProt P56817)
# Experiment: Inhibition of BACE1
# Chain of Beta-secretase 1 (P56817 whole entry): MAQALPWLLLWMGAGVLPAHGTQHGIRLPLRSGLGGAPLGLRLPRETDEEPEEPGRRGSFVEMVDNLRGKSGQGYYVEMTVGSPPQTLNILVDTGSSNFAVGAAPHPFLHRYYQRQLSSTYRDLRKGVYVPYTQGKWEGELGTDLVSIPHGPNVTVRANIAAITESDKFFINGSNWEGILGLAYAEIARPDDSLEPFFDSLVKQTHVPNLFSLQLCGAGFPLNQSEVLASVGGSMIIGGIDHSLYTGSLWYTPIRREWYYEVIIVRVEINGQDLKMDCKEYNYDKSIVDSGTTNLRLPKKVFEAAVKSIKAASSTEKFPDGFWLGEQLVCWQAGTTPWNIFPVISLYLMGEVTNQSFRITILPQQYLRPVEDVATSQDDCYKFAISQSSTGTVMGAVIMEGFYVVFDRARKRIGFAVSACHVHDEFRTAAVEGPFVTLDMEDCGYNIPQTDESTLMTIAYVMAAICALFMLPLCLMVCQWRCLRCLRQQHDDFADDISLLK
row,IC50,Structure (SMILES)
1,0.68 µM,CC(C)[C@H](NC(=O)[C@@H](N)CNC(=O)c1nn[nH]n1)C(=O)N[C@@H](CC1CCCCC1)C(=O)NCC(O)(Cc1ccccc1)C(=O)Nc1cccc(C(=O)O)c1 (stereo partly specified)
2,> 10 µM,CCCC[C@H](NC(=O)[C@@H](N)CNC(=O)c1nnn[nH]1)C(=O)N[C@@H](CC(C)C)C(=O)NCC(O)(CCc1ccccc1)C(=O)Nc1cccc(C(=O)O)c1 (stereo partly specified)
3,> 10 µM,CC(C)C[C@H](NC(=O)[C@@H](NC(=O)[C@@H](CO)NC(=O)c1nn[nH]n1)C(C)C)C(=O)NCC(O)(CCc1ccccc1)C(=O)Nc1cccc(C(=O)O)c1 (stereo partly specified)
4,> 10 µM,CC(C)C[C@H](NC(=O)[C@@H](NC(=O)[C@H](CO)NC(=O)c1nnn[nH]1)C(C)C)C(=O)NCCC(=O)Nc1cccc(C(=O)O)c1
5,0.87 µM,CC(C)C[C@H](NC(=O)[C@@H](NC(=O)[C@@H](N)CNC(=O)c1nnn[nH]1)C(C)C)C(=O)NCCC(=O)Nc1cccc(C(=O)O)c1
6,> 10 µM,CC(C)C[C@H](NC(=O)[C@@H](NC(=O)[C@H](CO)NC(=O)c1nnn[nH]1)C(C)C)C(=O)NCC(O)(CCc1ccccc1)C(=O)Nc1cccc(C(=O)O)c1 (stereo partly specified)
7,0.44 µM,CC(C)C[C@H](NC(=O)[C@@H](NC(=O)[C@@H](N)CNC(=O)c1nn[nH]n1)C(C)C)C(=O)NCC(O)C(=O)Nc1cccc(C(=O)O)c1 (stereo partly specified)
8,> 10 µM,CC(C)C[C@H](NC(=O)[C@H](CC(C)C)NC(=O)[C@@H](N)CNC(=O)c1nnn[nH]1)C(=O)NCC(O)(CCc1ccccc1)C(=O)Nc1cccc(C(=O)O)c1 (stereo partly specified)
9,> 10 µM,CC(C)C[C@H](NC(=O)C[C@@H](NC(=O)[C@@H](N)CNC(=O)c1nnn[nH]1)C(C)C)C(=O)NCC(O)(CCc1ccccc1)C(=O)Nc1cccc(C(=O)O)c1 (stereo partly specified)
10,> 10 µM,CC(C)[C@H](NC(=O)[C@@H](NC(=O)[C@@H](CO)NC(=O)c1nn[nH]n1)C(C)C)C(=O)NCC(O)C(=O)Nc1cccc(C(=O)O)c1 (stereo partly specified)
11,> 10 µM,CC(C)C[C@H](NC(=O)[C@@H](NC(=O)[C@H](N)CO)C(C)C)C(=O)NCC(O)C(=O)Nc1cccc(C(=O)O)c1 (stereo partly specified)
12,> 10 µM,CC(C)C[C@H](NC(=O)[C@@H](NC(=O)[C@@H](N)CN)C(C)C)C(=O)NCC(O)(CCc1ccccc1)C(=O)Nc1cccc(C(=O)O)c1 (stereo partly specified)
13,6.1 µM,CC(C)C[C@H](NC(=O)[C@@H](NC(=O)[C@@H](N)CNC(=O)c1nn[nH]n1)C(C)C)C(=O)NCC(O)C(=O)O (stereo partly specified)
14,> 10 µM,CC(C)C[C@H](NC(=O)[C@@H](NC(=O)[C@H](N)CNC(=O)c1nn[nH]n1)C(C)C)C(=O)NCC(O)C(=O)Nc1cccc(C(=O)O)c1 (stereo partly specified)
15,> 10 µM,CC(C)C[C@H](NC(=O)[C@H](Cc1ccccc1)NC(=O)[C@@H](N)CNC(=O)c1nnn[nH]1)C(=O)NC[C@](O)(CCc1ccccc1)C(=O)Nc1cccc(C(=O)O)c1
16,> 10 µM,CC(C)C[C@H](NC(=O)[C@H](Cc1ccccc1)NC(=O)[C@@H](N)CNC(=O)c1nnn[nH]1)C(=O)NC[C@@](O)(CCc1ccccc1)C(=O)Nc1cccc(C(=O)O)c1
17,> 10 µM,CC(C)C[C@H](NC(=O)[C@@H](NC(=O)[C@@H](N)CN)C(C)C)C(=O)NCC(O)C(=O)Nc1cccc(C(=O)O)c1 (stereo partly specified)
18,3 µM,CC(C)[C@H](NC(=O)[C@@H](NC(=O)[C@@H](N)CNC(=O)c1nnn[nH]1)C(C)C)C(=O)NCC(O)C(=O)Nc1cccc(C(=O)O)c1 (stereo partly specified)
19,4.4 µM,CC(C)C[C@H](NC(=O)[C@@H](NC(=O)[C@@H](N)CNC(=O)c1nnn[nH]1)C(C)C)C(=O)O
20,0.43 µM,CC(C)C[C@H](NC(=O)[C@@H](NC(=O)[C@@H](N)CNC(=O)c1nnn[nH]1)C(C)C)C(=O)NCC(O)(Cc1ccccc1)C(=O)Nc1cccc(C(=O)O)c1 (stereo partly specified)
21,> 10 µM,CC(C)C[C@H](NC(=O)[C@@H](NC(=O)[C@@H](CO)NC(=O)c1nnn[nH]1)C(C)C)C(=O)NCCC(=O)Nc1cccc(C(=O)O)c1
22,> 10 µM,CC(C)C[C@H](NC(=O)[C@@H](NC(=O)[C@H](N)CNC(=O)c1nnn[nH]1)C(C)C)C(=O)NCCC(=O)Nc1cccc(C(=O)O)c1

row,Structure (SMILES),IC50
1,CC(C)C[C@H](NC(=O)[C@@H](NC(=O)[C@H](N)CNC(=O)c1nnn[nH]1)C(C)C)C(=O)NCC(O)(CCc1ccccc1)C(=O)Nc1cccc(C(=O)O)c1 (stereo partly specified),> 10 µM
2,CC(C)C[C@H](NC(=O)[C@@H](NC(=O)[C@@H](N)CNC(=O)c1nn[nH]n1)C(C)C)C(=O)NCC(O)(CCc1ccccc1)C(=O)Nc1cccc(C(=O)O)c1 (stereo partly specified),0.4 µM
3,CC(C)C[C@H](NC(=O)[C@@H](NC(=O)[C@@H](N)CNC(=O)c1nnn[nH]1)C(C)C)C(=O)NC[C@](O)(CCc1ccccc1)C(=O)Nc1cccc(C(=O)O)c1,0.19 µM
4,CC(C)C[C@H](NC(=O)[C@@H](NC(=O)[C@@H](N)CNC(=O)c1nn[nH]n1)C(C)C)C(=O)NC[C@@](O)(CCc1ccccc1)C(=O)Nc1cccc(C(=O)O)c1,1.4 µM
